Patent US4772586A, “Novel derivatives of arginine vasopressin antagonists” (Medical College of Ohio, priority 1986, dated 1988)
*1 amine or outer side, *2 acyl side, *3 side chain or, on linkers, in order; H or OH if unused. Where a SMILES comes first, the peptide text is derived from it. Bridges are numbered along the chain shown (N, C = ends). [ ]: non-standard residue; d: D form. The star is where a group is joined. Ethylenediamine = C(CN[*:2])N[*:1]; X1 = O=C(CC1(S[*:2])CCCCC1)[*:1]; Orn = NCCC[C@H](N)C(=O)O; NHCH2CH2OH = OCCN*

What was measured:
[1] = test system: antidiuretic response to arginine vasopressin; assay: Antagonism of the antidiuretic response to arginine vasopressin (Anti-ADH); format: in vivo, rats; settings: for Anti-ADH Potency pA2: estimated in vivo pA2; for Anti-ADH pA2: Table 1, estimated in vivo pA2 = negative log of effective dose divided by volume of distribution (67 ml/kg)
Method: Activity as antidiuretic agonists was determined by intravenous injection of the compounds being evaluated in ethanol-anesthesized water-loaded rats in accordance with Sawyer, Endocrinology, vol. 63 (1958) at 694. Antagonism of the antidiuretic response to subsequent injections of arginine vasopressin was tested by the method of Sawyer et al., Science, vol. 212 (1981) at 49.
(§1) Antagonistic potencies were determined and expressed as "effective doses" and pA2 values. The "effective dose" is defined as the dose (in nanomoles per kilogram) that reduces the response seen from 2x units of agonist injected 20 min after the dose of antagonist to the response with 1x units of agonist. Estimated in vivo "pA2 " values represent the negative logarithms of the effective doses, divided by the estimated volume of distribution (67 ml/kg).

[2] = test system: vasopressor response to arginine vasopressin; assay: Antagonism to the vasopressor response (Anti-VP); format: in vivo; settings: estimated in vivo pA2; for Anti-VP pA2: Table 1
Method: Antagonism to the vasopressor response was estimated in accordance with Dyckes et al., J. Med. Chem., vol. 17 (1974) at 969. The values are expressed as pA2 values, defined as in Schild et al., Br. J. Pharmacol., vol. 2 (1947) at 189.
as §1

Row | SMILES | Anti-ADH Potency pA2 ([1]; Table 2) | Anti-VP Potency pA2 ([2]; Table 2) | Anti-ADH pA2 [1] | Anti-VP pA2 [2] | other results
1 | CC[C@H](C)[C@@H]1NC(=O)[C@H](Cc2ccccc2)NC(=O)[C@@H](Cc2ccccc2)NC(=O)CC2(CCCCC2)SSC[C@@H](C(=O)N2CCC[C@H]2C(=O)N[C@@H](CCCNC(=N)N)C(=O)N2CCC[C@H]2C(N)=O)NC(=O)[C@H](CC(N)=O)NC1=O [Pro(NH2), [1-(beta-mercapto-beta,beta-cyclopentamethylenepropionic acid), 2-D-phenylalanine, 4-isoleucine, 9-prolinamide]-arginine vasopressin] ([dF]FINCPRP-NH2; linker N-5 via X1) | 7.19 ± 0.04 | 7.12 ± 0.11 | – | – | –
2 | CC[C@H](C)[C@@H]1NC(=O)[C@H](Cc2ccccc2)NC(=O)[C@@H](Cc2ccccc2)NC(=O)CC2(CCCCC2)SSC[C@@H](C(=O)N2CCC[C@H]2C(=O)N[C@@H](CCCNC(=N)N)C(=O)NCC(=O)NCCO)NC(=O)[C@H](CC(N)=O)NC1=O [[1-(beta-mercapto-beta,beta-cyclopentamethylenepropionic acid), 2-D-phenylalanine, 4-isoleucine, 9-glycine-N-(beta-hydroxy)ethylamide]-arginine vasopressin] ([dF]FINCPRG-NHCH2CH2OH; linker N-5 via X1) | – | – | – | – | Anti-ADH Potency pA2 ([1]; Table 4): 8.20 ± 0.12; Anti-VP Potency pA2 ([2]; Table 4, ^+ = mixed): 6.92 ± 0.07
3 | CCOc1ccc(C[C@H]2NC(=O)CC3(CCCCC3)SSC[C@@H](C(=O)N3CCC[C@H]3C(=O)N[C@@H](CCCNC(=N)N)C(=O)NCC(=O)NC)NC(=O)[C@H](CC(N)=O)NC(=O)[C@H](C(C)C)NC(=O)[C@H](Cc3ccccc3)NC2=O)cc1 [[1-(beta-mercapto-beta,beta-cyclopentamethylenepropionic acid), 2-D-(O-ethyl)tyrosine, 4-valine, 9-glycine-N-methylamide]-arginine vasopressin] ([dY](Et)FVNCPRG-NHMe; linker N-5 via X1) | – | – | – | – | Anti-ADH Potency pA2 ([1]; Table 4): 7.58 ± 0.06; Anti-VP Potency pA2 ([2]; Table 4, ^+ = mixed): 7.71 ± 0.04
4 | CC[C@H](C)[C@H](NC(=O)[C@H](CCCNC(=N)N)NC(=O)[C@@H]1CCCN1C(=O)[C@@H]1CSSC2(CCCCC2)CC(=O)N[C@H](Cc2ccccc2)C(=O)N[C@@H](Cc2ccccc2)C(=O)N[C@@H]([C@@H](C)CC)C(=O)N[C@@H](CC(N)=O)C(=O)N1)C(N)=O [Ile(NH2), [1-(beta-mercapto-beta,beta-cyclopentamethylenepropionic acid), 2-D-phenylalanine, 4-isoleucine, 9-isoleucinamide]-arginine vasopressin] ([dF]FINCPRI-NH2; linker N-5 via X1) | 7.58 ± 0.11 | 7.04 ± 0.05 | – | – | –
5 | CC[C@H](C)[C@@H]1NC(=O)[C@H](Cc2ccccc2)NC(=O)[C@@H](Cc2ccccc2)NC(=O)CC2(CCCCC2)SSC[C@@H](C(=O)N2CCC[C@H]2C(=O)N[C@@H](CCCNC(=N)N)C(=O)N[C@H](C)C(N)=O)NC(=O)[C@H](CC(N)=O)NC1=O [D-Ala(NH2), [1-(beta-mercapto-beta,beta-cyclopentamethylenepropionic acid), 2-D-phenylalanine, 4-isoleucine, 9-D-alaninamide]-arginine vasopressin] ([dF]FINCPR[dA]-NH2; linker N-5 via X1) | 7.38 ± 0.08 | 7.55 ± 0.05 | – | – | –
6 | CC[C@H](C)[C@@H]1NC(=O)[C@H](Cc2ccccc2)NC(=O)[C@@H](Cc2ccc(O)cc2)NC(=O)CC2(CCCCC2)SSC[C@@H](C(=O)N2CCC[C@H]2C(=O)N[C@@H](CCCNC(=N)N)C(=O)NCCN)NC(=O)[C@H](CC(N)=O)NC1=O [[1-beta-mercapto-beta,beta-cyclopentamethylenepropionic acid, 2-D-tyrosine, 4-isoleucine, 8-arginine-N-(beta-amino)ethylamide, 9-desglycinamide] vasopressin] ([dY]FINCPR-Ethylenediamine; linker N-5 via X1) | – | – | – | – | Anti-ADH Potency pA2 ([1]; Table 4): 7.81 ± 0.06; Anti-VP Potency pA2 ([2]; Table 4, ^+ = mixed): 7.93 ± 0.08
7 | CC[C@H](C)[C@@H]1NC(=O)[C@H](Cc2ccccc2)NC(=O)[C@@H](Cc2ccccc2)NC(=O)CC2(CCCCC2)SSC[C@@H](C(=O)N2CCC[C@H]2C(=O)N[C@@H](CCCNC(=N)N)C(=O)N[C@@H](CCCN)C(N)=O)NC(=O)[C@H](CC(N)=O)NC1=O [Orn(NH2), [1-(beta-mercapto-beta,beta-cyclopentamethylenepropionic acid), 2-D-phenylalanine, 4-isoleucine, 9-ornithinamide]-arginine vasopressin] ([dF]FINCPR[Orn]-NH2; linker N-5 via X1) | 8.18 ± 0.09 | 7.80 ± 0.05 | – | – | –
8 | CC[C@H](C)[C@@H]1NC(=O)[C@H](Cc2ccccc2)NC(=O)[C@@H](Cc2ccccc2)NC(=O)CC2(CCCCC2)SSC[C@@H](C(=O)N2CCC[C@H]2C(=O)N[C@@H](CCCNC(=N)N)C(=O)N[C@@H](C)C(N)=O)NC(=O)[C@H](CC(N)=O)NC1=O [Ala(NH2), [1-(beta-mercapto-beta,beta-cyclopentamethylenepropionic acid), 2-D-phenylalanine, 4-isoleucine, 9-alaninamide]-arginine vasopressin] ([dF]FINCPRA-NH2; linker N-5 via X1) | 8.38 ± 0.13 | 7.67 ± 0.04 | – | – | –
9 | CC(C)[C@@H]1NC(=O)[C@H](Cc2ccccc2)NC(=O)[C@@H](Cc2ccccc2)NC(=O)CC2(CCCCC2)SSC[C@@H](C(=O)N2CCC[C@H]2C(=O)N[C@@H](CCCNC(=N)N)C(=O)NCC(N)=O)NC(=O)[C@H](CC(N)=O)NC1=O [d(CH2) 5 [D-Phe^2]VAVP, [1-(beta-mercapto-beta,beta-cyclopentamethylenepropionic acid), 2-D-phenylalanine, 4-valine]-arginine vasopressin, reference compound] ([dF]FVNCPRG-NH2; linker N-5 via X1) | – | – | 8.06 ± 0.09 | 8.06 ± 0.03 | –
10 | COc1ccc(C[C@@H]2NC(=O)CC3(CCCCC3)SSC[C@@H](C(=O)N3CCC[C@H]3C(=O)N[C@@H](CCCNC(=N)N)C(=O)O)NC(=O)[C@H](CC(N)=O)NC(=O)[C@H](CCC(N)=O)NC(=O)[C@H](Cc3ccccc3)NC2=O)cc1 [desGly(NH2)^9 d(CH2)5 [Tyr(Me)^2]AVP] (Y(Me)FQNCPR-OH; linker N-5 via X1) | – | – | ~ 5.4 | 8.46 ± 0.05 | –
11 | CC(C)[C@@H]1NC(=O)[C@H](Cc2ccccc2)NC(=O)[C@@H](Cc2ccccc2)NC(=O)CC2(CCCCC2)SSC[C@@H](C(=O)N2CCC[C@H]2C(=O)N[C@@H](CCCNC(=N)N)C(N)=O)NC(=O)[C@H](CC(N)=O)NC1=O [desGly^9 d(CH2)5 [D-Phe^2]VAVP, [1-(beta-mercapto-beta,beta-cyclopentamethylenepropionic acid), 2-D-phenylalanine, 4-valine, 9-desglycine]-arginine vasopressin] ([dF]FVNCPR-NH2; linker N-5 via X1) | – | – | 8.09 ± 0.08 | 8.15 ± 0.03 | –
12 | CCOc1ccc(C[C@H]2NC(=O)CC3(CCCCC3)SSC[C@@H](C(=O)N3CCC[C@H]3C(=O)N[C@@H](CCCNC(=N)N)C(=O)O)NC(=O)[C@H](CC(N)=O)NC(=O)[C@H](C(C)C)NC(=O)[C@H](Cc3ccccc3)NC2=O)cc1 [desGly(NH2)^9 d(CH2)5 [D-Tyr(Et)^2]VAVP, [1-(beta-mercapto-beta,beta-cyclopentamethylenepropionic acid), 2-D-(O-ethyl)tyrosine, 4-valine, 9-desglycinamide]-arginine vasopressin] ([dY](Et)FVNCPR-OH; linker N-5 via X1) | – | – | 7.78 ± 0.03 | 7.77 ± 0.02 | –
